ChEMBL document CHEMBL3879913, “NMDA receptor modulators and uses related thereto” (2014)

Target: Glutamate NMDA receptor; Grin1/Grin2c (Rattus norvegicus) (UniProt P35439+Q00961)
Test: Modulation of recombinant rat GluN1/GluN2C expressed in Xenopus laevis oocytes assessed as potentiation of glycine/glutamate-induced current by measuring receptor response at 100 uM by two-electrode voltage-clamp method relative to control
Format: cell-based

Activity	Structure (SMILES)
84%	COC(=O)c1ccc(C2C(C(=O)c3ccncc3)=C(O)C(=O)N2CCc2c[nH]cn2)cc1 (configuration not stated)
97%	COC(=O)c1ccc(C2C(C(=O)c3ccncc3)=C(O)C(=O)N2CCc2ccncc2)cc1 (configuration not stated)
